# Key:
# [1] = biological target: T1, Recombinant (1-346) HPK1 (h) (Homo sapiens, UniProt Q92918); test: HPK1 Human STE Kinase Enzymatic Radiometric Assay; format: biochemical; conditions: read-out: HPK1 IC50 nM Range*
# T1 construct: Recombinant (1-346) HPK1 (h) is incubated with 8 mM MOPS pH 7.0
# T1 sequence (Q92918 1-346): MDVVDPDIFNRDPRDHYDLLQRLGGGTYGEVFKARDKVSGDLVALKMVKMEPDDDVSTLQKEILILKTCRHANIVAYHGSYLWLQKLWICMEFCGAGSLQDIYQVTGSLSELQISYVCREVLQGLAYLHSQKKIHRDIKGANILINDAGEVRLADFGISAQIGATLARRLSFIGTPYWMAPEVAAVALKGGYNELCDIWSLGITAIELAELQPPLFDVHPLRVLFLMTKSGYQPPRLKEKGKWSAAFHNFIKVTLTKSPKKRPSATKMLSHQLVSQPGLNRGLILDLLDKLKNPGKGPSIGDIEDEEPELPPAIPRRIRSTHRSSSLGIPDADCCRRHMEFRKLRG
# Protocol: A stock solution of 10 mM of test compound is prepared in DMSO. The compound plate was prepared by 3-fold and 9-point serial dilutions. […] The reaction is initiated by The addition of the Mg/ATP mix. After incubation for 40 minutes at RT, the reaction is stopped by the addition of phosphoric acid to a concentration of 0.5%.
# Lck (h) = Lck (h) (Homo sapiens, UniProt P06239); test: Lck Human  Kinase Enzymatic Radiometric Assay; format: biochemical; conditions: read-out: Lck IC50 nM Range*
# Lck (h), sequence (P06239 whole entry): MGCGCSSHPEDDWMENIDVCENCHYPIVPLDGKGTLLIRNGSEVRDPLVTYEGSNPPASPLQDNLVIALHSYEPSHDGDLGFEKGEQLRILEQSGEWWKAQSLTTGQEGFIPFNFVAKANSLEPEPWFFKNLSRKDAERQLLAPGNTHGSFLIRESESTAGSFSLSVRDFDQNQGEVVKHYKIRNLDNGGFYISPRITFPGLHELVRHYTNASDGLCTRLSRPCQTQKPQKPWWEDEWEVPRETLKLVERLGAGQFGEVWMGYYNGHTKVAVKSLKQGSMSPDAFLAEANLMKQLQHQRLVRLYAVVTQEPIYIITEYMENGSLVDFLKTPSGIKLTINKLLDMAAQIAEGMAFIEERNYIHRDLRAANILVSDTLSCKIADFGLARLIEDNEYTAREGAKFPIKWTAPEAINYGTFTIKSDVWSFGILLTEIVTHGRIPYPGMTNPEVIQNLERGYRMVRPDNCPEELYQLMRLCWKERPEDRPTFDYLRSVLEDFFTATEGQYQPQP
# Protocol: Lck (h) is incubated with 50 mM Tris pH 7.5, 0.1 mM EGTA, 0.1 mM Na3VO4, 250 uM KVEKIGEGTYGVVYK (Cdc2 peptide), 10 mM MgAcetate and [gamma-33P]-ATP (specific activity and concentration as required). The reaction is initiated by the addition of the Mg/ATP mix. After incubation for 40 minutes at RT, the reaction is stopped by the addition of phosphoric acid to a concentration of 0.5%. 10 uL of the reaction is then spotted onto a P30 filtermat and washed four times for 4 minutes in 0.425% phosphoric acid and once in methanol prior to drying and scintillation counting. For more details on the kinase assay procedures see: Gao, Y. et. al.; Biochem J., 451 (2): 313-328, 2013.
SMILES,IC50 [1],IC50 (Lck (h))
"CC(C)[C@H]1CN(c2ccc(-c3cc(-c4ccc5c(c4)CCNC5=O)c(N)nc3F)c(F)c2)CCO1 [I-12, (S)-6-(2-amino-6-fluoro-5-(2-fluoro-4-(2-isopropylmorpholino)phenyl)pyridin-3-yl)-3,4-dihydroisoquinolin-1(2H)-one]",11 to 100 nM,> 1000 nM
"CN1[C@@H]2CC[C@H]1CN(c1ccc(-c3cc(-c4ccc5c(c4)CCNC5=O)c(N)nc3F)cc1)C2 [I-13, 6-(2-amino-6-fluoro-5-(4-((1R,5S)-8-methyl-3,8-diazabicyclo[3.2.1]octan-3-yl)phenyl)pyridin-3-yl)-3,4-dihydroisoquinolin-1(2H)-one]",0.1 to 10 nM,101 to 1000 nM
"CN1C[C@H]2C[C@@]2(c2ccc(-c3cc(-c4ccc5c(c4)CCNC5=O)c(N)nc3F)cc2)C1 [I-14, 6-(2-amino-6-fluoro-5-(4-((1R,5S)-3-methyl-3-azabicyclo[3.1.0]hexan-1-yl)phenyl)pyridin-3-yl)-3,4-dihydroisoquinolin-1(2H)-one]",0.1 to 10 nM,> 1000 nM
"CC(C)S(=O)(=O)c1ccc(-c2cc(-c3ccc4c(c3)CCNC4=O)c(N)nc2F)cc1 [I-15, 6-(2-amino-6-fluoro-5-(4-(isopropylsulfonyl)phenyl)pyridin-3-yl)-3,4-dihydroisoquinolin-1(2H)-one]",0.1 to 10 nM,> 1000 nM
"Nc1nc(F)c(-c2ccc(N3CCNCC3)cc2)cc1-c1ccc2c(c1)CCNC2=O [I-17, 6-(2-amino-6-fluoro-5-(4-(piperazin-1-yl)phenyl)pyridin-3-yl)-3,4-dihydroisoquinolin-1(2H)-one]",0.1 to 10 nM,> 1000 nM
"CN1C[C@@H]2C[C@H]1CN2c1ccc(-c2cc(-c3ccc4c(c3)CCNC4=O)c(N)nc2F)cc1 [I-18, 6-(2-amino-6-fluoro-5-(4-(5-methyl-2,5-diazabicyclo[2.2.1]heptan-2-yl)phenyl)pyridin-3-yl)-3,4-dihydroisoquinolin-1(2H)-one]",0.1 to 10 nM,> 1000 nM
"Nc1nc(F)c(-c2ccc(N3CCOCC3)cc2)cc1-c1cc2c(cc1F)C(=O)NCC2 [I-19, 6-(2-amino-6-fluoro-5-(4-morpholinophenyl)pyridin-3-yl)-7-fluoro-3,4-dihydroisoquinolin-1(2H)-one]",0.1 to 10 nM,> 1000 nM
"Nc1nc(F)c(-c2ccc(N3CCN(CCF)CC3)cc2)cc1-c1ccc2c(c1)CCNC2=O [I-20, 6-(2-amino-6-fluoro-5-(4-(4-(2-fluoroethyl)piperazin-1-yl)phenyl)pyridin-3-yl)-3,4-dihydroisoquinolin-1(2H)-one]",0.1 to 10 nM,> 1000 nM
"Nc1nc(F)c(-c2ccc(N3CCN(CC(F)F)CC3)cc2)cc1-c1ccc2c(c1)CCNC2=O [I-21, 6-(2-amino-5-(4-(4-(2,2-difluoroethyl)piperazin-1-yl)phenyl)-6-fluoropyridin-3-yl)-3,4-dihydroisoquinolin-1(2H)-one]",0.1 to 10 nM,> 1000 nM
"Nc1nc(F)c(-c2ccc(OC3CCNCC3)cc2)cc1-c1ccc2c(c1)CCNC2=O [I-22, 6-(2-amino-6-fluoro-5-(4-(piperidin-4-yloxy)phenyl)pyridin-3-yl)-3,4-dihydroisoquinolin-1(2H)-one]",0.1 to 10 nM,> 1000 nM
"Nc1nc(F)c(-c2ccc(N3CCN4CCOCC4C3)cc2)cc1-c1ccc2c(c1)CCNC2=O (stereo not drawn) [I-23, 6-(2-amino-6-fluoro-5-(4-(hexahydropyrazino[2,1-c][1,4]oxazin-8(1H)-yl)phenyl)pyridin-3-yl)-3,4-dihydroisoquinolin-1(2H)-one]",0.1 to 10 nM,> 1000 nM
"CO[C@@H](C)CN1CCN(c2ccc(-c3cc(-c4ccc5c(c4)CCNC5=O)c(N)nc3F)cc2)CC1 [I-24, (S)-6-(2-amino-6-fluoro-5-(4-(4-(2-methoxypropyl)piperazin-1-yl)phenyl)pyridin-3-yl)-3,4-dihydroisoquinolin-1(2H)-one]",0.1 to 10 nM,> 1000 nM
